According to publication PMC5697189 (Journal of Veterinary Internal Medicine, 2017):
Where two headings read alike, the source gives them in different places.

Experiments:
[1] = system: recombinant canine GSTT5 (reference); test: spectrophotometric glutathione conjugation assay, Michaelis-Menten fit; format: biochemical, Canis lupus familiaris; details: co-substrate glutathione (5 mM); pH and temperature not stated
[2] = system: recombinant canine GSTT5 (reference); details: co-substrate glutathione (5 mM); pH and temperature not stated

Compound: O=[N+]([O-])c1ccc(Cl)c(Cl)c1 [1,2-dichloro-4-nitrobenzene, 1,2‐dichloro‐4‐nitrobenzene]
- Km [1]: 168 ± 27 µM
- Km [2]: 164 ± 22 µM
